Test results published in patent US12012417B2, “N-substituted tetrahydrothienopyridine derivatives and uses thereof” (NOVARTIS AG, priority 2018, dated 2024).
Where a name gives a salt, the structure may show the parent alone. Read-outs that look alike come from different tables or passages of the source.

Experiments:
[1] = system: Dengue 1 virus MY97-10245; test: High-content imaging cell-based flavivirus immunodetection (HCl-CFI) assay, Dengue 1; conditions: Dengue virus, A549, 48 h, read-out: Dengue 1 virus MY97-10245 in A549 using HCl [Inhibitor/IC50] Qualified AC50
[2] = system: Dengue 4 virus MY01-22713; test: High-content imaging cell-based flavivirus immunodetection (HCl-CFI) assay, Dengue 4; conditions: Dengue virus, A549, 48 h
[3] = system: Dengue 2 virus MY97-10340; test: High-content imaging cell-based flavivirus immunodetection (HCl-CFI) assay, Dengue 2; conditions: Dengue virus, A549, 48 h
Protocol: High-Content Imaging Cell-Based Flavivirus Immunodetection (HCl-CFI) Assay
A549 cells (7×10^3 cells per well) in a 384-well plate were infected with the DENV-2 (MY97-10340) strain at an MOI of 0.3. The cells were then treated with 3-fold, 10-point serial dilutions of test compound. After 48 h, the cells were fixed with paraformadehyde, and the viral E protein detected with 4G2 antibody labeled with Dylight™ 488 (GenScript). Cell nuclei were stained with Draq5 (Pierce/Thermo), and images were taken on the Opera imaging system (Perkin Elmer). A dose-response curve was plotted to calculate the effective concentration of compound needed to reduce expression of E protein by 50% (EC50) using GraphPad Prism.
The resulted EC50 values are summarized in Table 1 below: ±≥1 μM; 1 μM>++≥0.1 μM; 0.1 μm>+++

[4] = system: Dengue 3 virus MY05-34640-WT-C6/36; test: High-content imaging cell-based flavivirus immunodetection (HCl-CFI) assay, Dengue 3; conditions: Dengue virus, A549, 48 h, read-out: Dengue 3 virus MY05-34640-WT-C6/36 in A549 using HCl [Inhibitor/IC50] Qualified AC50
[5] = read-out: Dengue 4 virus MY01-22713 in A549 using HCl [Inhibitor/IC50] Qualified AC50, A549 cells, 48 h, viral E protein expression
[6] = read-out: Dengue 2 virus MY97-10340 in A549 using HCl [Inhibitor/IC50] Qualified AC50, A549 cells, MOI 0.3, 48 h, viral E protein expression

SMILES | EC50 [1] | EC50 [2, 5] | EC50 [3, 6] | EC50 [4] | EC50 ([2]; read-out: Dengue 4 virus MY01-22713 in A549 using HCl [Inhibitor/IC50] Qualified AC50) | EC50 ([3]; read-out: Dengue 2 virus MY97-10340 in A549 using HCl [Inhibitor/IC50] Qualified AC50)
N#Cc1c(NC(=O)Cc2ccc(S(N)(=O)=O)cc2)sc2c1CCN(CC1CCCCC1)C2 [Example 92, N-(3-cyano-6-(cyclohexylmethyl)-4,5,6,7-tetrahydrothieno[2,3-c]pyridin-2-yl)-2-(4-sulfamoylphenyl) acetamide] | 0.1 to 1 µM | < 0.1 µM | < 0.1 µM | 0.1 to 1 µM | – | –
N#Cc1c(NC(=O)Cc2ccc(S(N)(=O)=O)cc2)sc2c1CCN(Cc1cccc(F)c1F)C2 [Example 106, N-(3-cyano-6-(2,3-difluorobenzyl)-4,5,6,7-tetrahydrothieno[2,3-c]pyridin-2-yl)-2-(4-sulfamoylphenyl)acetamide] | 0.1 to 1 µM | < 0.1 µM | < 0.1 µM | < 0.1 µM | – | –
CCC1Cc2sc(NC(=O)Cc3ccc(S(N)(=O)=O)cc3)c(C#N)c2CN1Cc1cccc(F)c1 (stereo not drawn) [Example 87, N-(3-cyano-6-ethyl-5-(3-fluorobenzyl)-4,5,6,7-tetrahydrothieno[3,2-c]pyridin-2-yl)-2-(4-sulfamoylphenyl)acetamide] | 0.1 to 1 µM | < 0.1 µM | < 0.1 µM | < 0.1 µM | – | –
N#Cc1c(NC(=O)Cc2ccc(CS(N)(=O)=O)cc2)sc2c1CN(CC1CCCCC1)CC2 [Example 17, N-(3-cyano-5-(cyclohexylmethyl)-4,5,6,7-tetrahydrothieno[3,2-c]pyridin-2-yl)-2-(4-(sulfamoylmethyl)phenyl)acetamide] | 0.1 to 1 µM | < 0.1 µM | < 0.1 µM | < 0.1 µM | – | –
CC1Cc2sc(NC(=O)Cc3ccc(S(N)(=O)=O)cc3)c(C#N)c2CN1Cc1cc(Cl)ccc1Cl (stereo not drawn) [Example 64, N-(3-cyano-5-(2,5-dichlorobenzyl)-6-methyl-4,5,6,7-tetrahydrothieno[3,2-c]pyridin-2-yl)-2-(4-sulfamoylphenyl)acetamide] | < 0.1 µM | < 0.1 µM | < 0.1 µM | < 0.1 µM | – | –
COP(C)(=O)c1ccc(CC(=O)Nc2sc3c(c2C#N)CN(Cc2cccc(F)c2)CC3)cc1 (stereo not drawn) [Example 44, Methyl (4-(2-((3-cyano-5-(3-fluorobenzyl)-4,5,6,7-tetrahydrothieno[3,2-c]pyridin-2-yl)amino)-2-oxoethyl)phenyl)(methyl)phosphinate] | > 1 µM | – | – | 0.1 to 1 µM | 0.1 to 1 µM | 0.1 to 1 µM
N#Cc1c(NC(=O)Cc2ccc(S(N)(=O)=O)cc2)sc2c1CN(CC1CCCCC1)CC2 [Example 6, N-(3-cyano-5-(cyclohexylmethyl)-4,5,6,7-tetrahydrothieno[3,2-c]pyridin-2-yl)-2-(4-sulfamoylphenyl)acetamide] | 0.1 to 1 µM | < 0.1 µM | < 0.1 µM | < 0.1 µM | – | –
CC1(C)CS(=O)(=O)c2ccc(CC(=O)Nc3sc4c(c3C#N)CN(Cc3cccc(F)c3)CC4)cc21 [Example 42, N-(3-cyano-5-(3-fluorobenzyl)-4,5,6,7-tetrahydrothieno[3,2-c]pyridin-2-yl)-2-(3,3-dimethyl-1,1-dioxido-2,3-dihydrobenzo[b]thiophen-5-yl)acetamide] | 0.1 to 1 µM | < 0.1 µM | < 0.1 µM | < 0.1 µM | – | –
CC1Cc2sc(NC(=O)Cc3ccc(C(N)=O)cc3)c(C#N)c2CN1Cc1cccc(F)c1 (stereo not drawn) [Example 58, 4-(2-((3-cyano-5-(3-fluorobenzyl)-6-methyl-4,5,6,7-tetrahydrothieno[3,2-c]pyridin-2-yl)amino)-2-oxoethyl)benzamide] | 0.1 to 1 µM | < 0.1 µM | < 0.1 µM | < 0.1 µM | – | –
CC1(C)Cc2sc(NC(=O)Cc3ccccc3)c(C#N)c2CN1CC1CCCCC1 [Example 73, N-(3-cyano-5-(cyclohexylmethyl)-6,6-dimethyl-4,5,6,7-tetrahydrothieno[3,2-c]pyridin-2-yl)-2-phenylacetamide] | 0.1 to 1 µM | 0.1 to 1 µM | 0.1 to 1 µM | 0.1 to 1 µM | – | –
N#Cc1c(NC(=O)Cc2ccc3c(c2)CCS3(=O)=O)sc2c1CN(CC1CCCCC1)CC2 [Example 18, N-(3-cyano-5-(cyclohexylmethyl)-4,5,6,7-tetrahydrothieno[3,2-c]pyridin-2-yl)-2-(1,1-dioxido-2,3-dihydrobenzo[b]thiophen-5-yl)acetamide] | < 0.1 µM | < 0.1 µM | < 0.1 µM | < 0.1 µM | – | –
CNS(=O)(=O)c1ccc(CC(=O)Nc2sc3c(c2C#N)CN(Cc2cccc(F)c2)CC3)cc1 [Example 29, N-(3-cyano-5-(3-fluorobenzyl)-4,5,6,7-tetrahydrothieno[3,2-c]pyridin-2-yl)-2-(4-(N-methylsulfamoyl)phenyl)acetamide] | 0.1 to 1 µM | < 0.1 µM | < 0.1 µM | < 0.1 µM | – | –
N#Cc1c(NC(=O)Cc2ccc(S(=O)(=O)C(F)F)cc2)sc2c1CN(CC1CCCCC1)CC2 [Example 11, N-(3-cyano-5-(cyclohexylmethyl)-4,5,6,7-tetrahydrothieno[3,2-c]pyridin-2-yl)-2-(4-((difluoromethyl)sulfonyl)phenyl)acetamide] | < 0.1 µM | < 0.1 µM | 0.1 to 1 µM | < 0.1 µM | – | –
COc1cc(F)cc(CC(=O)Nc2sc3c(c2C#N)CN(Cc2cccc(F)c2)CC3)c1 [Example 35, N-(3-cyano-5-(3-fluorobenzyl)-4,5,6,7-tetrahydrothieno[3,2-c]pyridin-2-yl)-2-(3-fluoro-5-methoxyphenyl)acetamide] | > 1 µM | 0.1 to 1 µM | 0.1 to 1 µM | 0.1 to 1 µM | – | –
N#Cc1c(NC(=O)Cc2ccc(S(N)(=O)=O)s2)sc2c1CN(CC1CCCCC1)CC2 [Example 84, N-(3-cyano-5-(cyclohexylmethyl)-4,5,6,7-tetrahydrothieno[3,2-c]pyridin-2-yl)-2-(5-sulfamoylthiophen-2-yl)acetamide] | < 0.1 µM | < 0.1 µM | < 0.1 µM | < 0.1 µM | – | –
N#Cc1c(NC(=O)Cc2ccc3c(c2)CNC3)sc2c1CN(Cc1cccc(F)c1)CC2 [Example 26, N-(3-cyano-5-(3-fluorobenzyl)-4,5,6,7-tetrahydrothieno[3,2-c]pyridin-2-yl)-2-(isoindolin-5-yl)acetamide] | > 1 µM | > 1 µM | > 1 µM | > 1 µM | – | –
N#Cc1c(NC(=O)Cc2ccc(S(N)(=O)=O)cc2)sc2c1CCN(Cc1c(F)cccc1Cl)C2 [Example 111, N-(6-(2-chloro-6-fluorobenzyl)-3-cyano-4,5,6,7-tetrahydrothieno[2,3-c]pyridin-2-yl)-2-(4-sulfamoylphenyl)acetamide] | 0.1 to 1 µM | < 0.1 µM | < 0.1 µM | < 0.1 µM | – | –
COc1cccc(CC(=O)Nc2sc3c(c2C#N)CN(Cc2cccc(F)c2)CC3)c1F [Example 40, N-(3-cyano-5-(3-fluorobenzyl)-4,5,6,7-tetrahydrothieno[3,2-c]pyridin-2-yl)-2-(2-fluoro-3-methoxyphenyl)acetamide] | > 1 µM | 0.1 to 1 µM | 0.1 to 1 µM | 0.1 to 1 µM | – | –
CC1Cc2sc(NC(=O)Cc3ccc(S(=O)(=O)NCC4CC(F)(F)C4)cc3)c(C#N)c2CN1CC1CC(F)(F)C1 (stereo not drawn) [Example 57, N-(3-cyano-5-((3,3-difluorocyclobutyl)methyl)-6-methyl-4,5,6,7-tetrahydrothieno[3,2-c]pyridin-2-yl)-2-(4-(N-((3,3-difluorocyclobutyl)methyl)sulfamoyl)phenyl)acetamide] | > 1 µM | 0.1 to 1 µM | 0.1 to 1 µM | > 1 µM | – | –
COCCOc1cccc(CC(=O)Nc2sc3c(c2C#N)CN(CC2CCCCC2)CC3)c1 [Example 15, N-(3-cyano-5-(cyclohexylmethyl)-4,5,6,7-tetrahydrothieno[3,2-c]pyridin-2-yl)-2-(3-(2-methoxyethoxy)phenyl)acetamide] | 0.1 to 1 µM | 0.1 to 1 µM | 0.1 to 1 µM | 0.1 to 1 µM | – | –
Cn1cc(S(N)(=O)=O)cc1CC(=O)Nc1sc2c(c1C#N)CN(CC1CCCCC1)CC2 [Example 88, N-(3-cyano-5-(cyclohexylmethyl)-4,5,6,7-tetrahydrothieno[3,2-c]pyridin-2-yl)-2-(1-methyl-4-sulfamoyl-1H-pyrrol-2-yl)acetamide] | 0.1 to 1 µM | < 0.1 µM | < 0.1 µM | < 0.1 µM | – | –
COC(=O)c1ccccc1CN1CCc2c(sc(NC(=O)Cc3ccc(S(N)(=O)=O)cc3)c2C#N)C1 [Example 91, Methyl-2-((3-cyano-2-(2-(4-sulfamoylphenyl)acetamido)-4,5-dihydrothieno[2,3-c]pyridin-6-(71-1)-yl)methyl)benzoate hydrochloride] | – | 0.1 to 1 µM | > 1 µM | > 1 µM | – | –
